Source: patent US20150258129A1, “Method for Increasing the Activity of Lysosomal Enzymes” (Mount Sinai School of Medicine of New York University, priority 1998, published 2015)

Columns and labels:
[1] = molecular target: T1, glucocerebrosidase (β-Glu), N370S/N370S (Homo sapiens, UniProt P04062, N409S); experiment: Intracellular enhancement of β-Glu activity in Gaucher fibroblasts (N370S/N370S); type: cell-based; conditions: for intracellular β-Glu activity in Gaucher fibroblasts (summary): concentration ranges of 0.05-100 μM
T1 construct: endogenous in cells; host or cells: human Gaucher patient fibroblasts, genotype N370S/N370S
T1 sequence (P04062 40-536 N409S): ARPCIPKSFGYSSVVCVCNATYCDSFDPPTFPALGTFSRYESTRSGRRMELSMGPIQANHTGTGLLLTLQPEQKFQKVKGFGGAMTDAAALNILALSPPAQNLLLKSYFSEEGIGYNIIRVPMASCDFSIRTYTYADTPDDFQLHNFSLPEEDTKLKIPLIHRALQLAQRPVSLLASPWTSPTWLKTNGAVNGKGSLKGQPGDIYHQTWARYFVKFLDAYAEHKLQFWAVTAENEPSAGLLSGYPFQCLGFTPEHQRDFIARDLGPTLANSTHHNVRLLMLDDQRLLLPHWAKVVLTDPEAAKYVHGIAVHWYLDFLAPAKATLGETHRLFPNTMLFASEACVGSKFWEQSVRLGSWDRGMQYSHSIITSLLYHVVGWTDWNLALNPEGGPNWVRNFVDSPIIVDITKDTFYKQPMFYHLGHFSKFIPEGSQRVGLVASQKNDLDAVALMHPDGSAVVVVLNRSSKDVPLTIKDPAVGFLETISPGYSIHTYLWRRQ

[2] = molecular target: human β-glucocerebrosidase (Homo sapiens, UniProt P04062); experiment: In vitro inhibition of human β-glucocerebrosidase; type: biochemical; conditions: for IC50: 0.1M citrate buffer (pH 5.2), 4-MU-β-Glu as substrate
Chain of human β-glucocerebrosidase (P04062 40-536): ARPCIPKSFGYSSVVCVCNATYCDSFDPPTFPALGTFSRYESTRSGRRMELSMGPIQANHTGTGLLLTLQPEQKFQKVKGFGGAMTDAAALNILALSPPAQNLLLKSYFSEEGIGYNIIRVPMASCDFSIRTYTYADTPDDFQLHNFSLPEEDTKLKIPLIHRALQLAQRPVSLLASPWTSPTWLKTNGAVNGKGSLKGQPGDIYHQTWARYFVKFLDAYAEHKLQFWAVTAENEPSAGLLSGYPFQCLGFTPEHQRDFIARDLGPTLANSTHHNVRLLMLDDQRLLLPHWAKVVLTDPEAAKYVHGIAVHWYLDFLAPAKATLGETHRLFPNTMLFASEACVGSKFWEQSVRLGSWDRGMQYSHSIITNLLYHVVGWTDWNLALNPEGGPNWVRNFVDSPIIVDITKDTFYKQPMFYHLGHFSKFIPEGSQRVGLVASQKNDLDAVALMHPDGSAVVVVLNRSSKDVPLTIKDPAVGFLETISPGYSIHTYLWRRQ

[3] = N370S/N370S, compound at 10 μM, 5 days
[4] = N370S/N370S, compound at 100 μM, 5 days

O[C@@H]1C[C@]2(O)N[C@H]1C[C@@H](O)[C@@H]2O [compound 23, calystegine B1]
intracellular β-Glu activity in Gaucher fibroblasts (summary) [1]: effectively enhance
IC50 [2]: 2.5 µM

OCC1CN(CCCc2ccccc2)CC(O)C1O (stereo not drawn) [compound 36, N-(3-phenylpropyl)-isofagomine]
elevation of residual β-Glu activity in Gaucher cells [1, 3]: 50%
elevation of residual β-Glu activity in Gaucher cells [1, 4]: 54%
intracellular β-Glu activity in Gaucher fibroblasts (summary) [1]: effectively enhance
IC50 [2]: 69 µM

OC1CC2(O)NC1C(O)C(O)C2O (stereo not drawn) [compound 26, calystegine C1]
intracellular β-Glu activity in Gaucher fibroblasts (summary) [1]: effectively enhance
IC50 [2]: 2.5 µM

CCCCN1C[C@H](CO)[C@@H](O)[C@H](O)C1 [compound 34, N-Butyl-isofagomine]
elevation of residual β-Glu activity in Gaucher cells [1, 3]: 73%
elevation of residual β-Glu activity in Gaucher cells [1, 4]: 56%
intracellular β-Glu activity in Gaucher fibroblasts (summary) [1]: effectively enhance
IC50 [2]: 44 µM

OCC1CN(CCCC2CCCCC2)CC(O)C1O (stereo not drawn) [compound 35, N-(3-cyclohexylpropyl)-isofagomine]
elevation of residual β-Glu activity in Gaucher cells [1, 3]: 106%
elevation of residual β-Glu activity in Gaucher cells [1, 4]: 47%
intracellular β-Glu activity in Gaucher fibroblasts (summary) [1]: effectively enhance
IC50 [2]: 100 µM

CC(C)=CCC/C(C)=C\CC/C(C)=C/CN1CC(O)C(O)C(CO)C1 (stereo not drawn) [compound 37, N-[(2E,6Z,10Z)-3,7,11-trimethyldodecatrienyl]-isofagomine]
elevation of residual β-Glu activity in Gaucher cells [1, 3]: 43%
decrease of residual β-Glu activity in Gaucher cells [1, 4]: 53%
intracellular β-Glu activity in Gaucher fibroblasts (summary) [1]: effectively enhance
IC50 [2]: 1.5 µM
increase in potency against β-Glu compared with the 4 carbon chain compound ([2]; compared with compound 32 (so in the source)): 30 fold
